Target: Bet BRD4 full length bromo-domain protein (Homo sapiens, UniProt O60885)
Assay: Bet bromodomain TR-FRET assay (displacement of acetyl histone peptide)
Assay type: binding
Details: Bet BRD4 full length bromodomain protein, 300 nM acetyl histone peptide substrate, read-out: IC50

IC50 | SMILES
< 0.6 µM | CS(=O)(=O)N1CCC(Oc2cc(NS(=O)(=O)c3ccc(Cl)cc3F)cc3c2NC(=O)C32CCC2)CC1 [Compound-210, 4-Chloro-2-fluoro-N-(7′-((1-(methylsulfonyl)piperidin-4-yl)-oxy)-2′-oxospiro[cyclobutane-1,3′-indolin]-5′-yl)benzenesulfonamide]
0.6 to 1 µM | CN1CCC(NC(=O)c2cc(NS(=O)(=O)c3ccc(Cl)cc3F)cc3c2NC(=O)C32CCC2)CC1 [Compound-211, 5′-((4-Chloro-2-fluorophenyl)sulfonamido)-N-(1-methylpiperidin-4-yl)-2′-oxospiro[cyclobutane-1,3′-indoline]-7′-carboxamide]
> 1 µM | COc1ccccc1S(=O)(=O)Nc1cc(B(O)O)c2c(c1)C1(CCC1)C(=O)N2 [Compound-217, (5′-((2-Methoxyphenyl)sulfonamido)-2′oxospiro[cyclobutane-1,3′-indolin]-7′-yl)boronic acid]
< 0.6 µM | COc1ccccc1S(=O)(=O)Nc1cc(OC2CCN(C(C)=O)CC2)c2c(c1)C1(CCC1)C(=O)N2 [Compound-220]
> 1 µM | O=C(Nc1cc(Br)c2c(c1)C1(CCC1)C(=O)N2)c1cccnc1N1CCOCC1 [Compound-222, N-(7′-bromo-2′-oxospiro[cyclobutane-1,3′-indolin]-5′-yl)-2-morpholinonicotinamide]
> 1 µM | O=C(Nc1cc(C2CC2)c2c(c1)C1(CCC1)C(=O)N2)c1cccnc1N1CCOCC1 [Compound-223, N-(7′-cyclopropyl-2′oxospiro[cyclobutane-1,3′-indolin]-5′-yl)-2-morpholinonicotinamide]
> 1 µM | CCN(c1cc(OC2CCN(C)CC2)c2c(c1)C1(CCC1)C(=O)N2)S(=O)(=O)c1ccccc1OC [compound 179, N-ethyl-2-methoxy-N-(7′-((1-methylpiperidin-4-yl)oxy)-2′-oxospiro[cyclobutane-1,3′-indolin]-5′-yl)benzenesulfonamide]
< 0.6 µM | COc1ccc(S(=O)(=O)Nc2cc(OC3CCN(C)CC3)c3c(c2)C2(CCC2)C(=O)N3)c(OC)c1 [compound 187, 2,4-Dimethoxy-N-(7′-((1-methylpiperidin-4-yl)oxy)-2′-oxospiro[cyclobutane-1,3′-indolin]-5′-yl)benzenesulfonamide]
< 0.6 µM | COc1cc(Cl)ccc1S(=O)(=O)Nc1cc(OC2CCN(C)CC2)c2c(c1)C1(CCC1)C(=O)N2 [compound 188, 4-Chloro-2-methoxy-N-(7′-((1-methylpiperidin-4-yl)oxy)-2′-oxospiro[cyclobutane-1,3′-indolin]-5′-yl)benzenesulfonamide]
< 0.6 µM | CCN(C)CCOc1cc(NS(=O)(=O)c2ccccc2OC)cc2c1NC(=O)C21CCC1 [compound 196, N-(7′-(2-(ethyl(methyl)amino)ethoxy)-2′-oxospiro[cyclobutane-1,3′-indolin]-5′-yl)-2-methoxybenzenesulfonamide]
< 0.6 µM | O=C1Nc2c(OC3CCNCC3F)cc(NS(=O)(=O)c3ccc(Cl)cc3F)cc2C12CCC2 (stereo not drawn) [compound 198, 4-Chloro-2-fluoro-N-(7′-((3-fluoropiperidin-4-yl)oxy)-2′-oxospiro[cyclobutane-1,3′-indolin]-5′-yl)benzenesulfonamide]
< 0.6 µM | COc1ccccc1S(=O)(=O)Nc1cc(OC2CCNCC2)c2c(c1)C1(CCC1)C(=O)N2 [compound 199, 2-Methoxy-N-(2′-oxo-7′-(piperidin-4-yloxy)spiro[cyclobutane-1,3′-indolin]-5′-yl)benzenesulfonamide]
< 0.6 µM | O=C1Nc2c(OCC3CNCCO3)cc(NS(=O)(=O)c3ccc(Cl)cc3F)cc2C12CCC2 (stereo not drawn) [compound 202, 4-Chloro-2-fluoro-N-(7′-(morpholin-2-ylmethoxy)-2′-oxospiro[cyclobutane-1,3′-indolin]-5′-yl)benzenesulfonamide]
< 0.6 µM | COc1ccccc1S(=O)(=O)Nc1cc(OCCNC2CC2)c2c(c1)C1(CCC1)C(=O)N2 [compound 206, N-(7′-(2-(cyclopropylamino)ethoxy)-2′-oxospiro[cyclobutane-1,3′-indolin]-5′-yl)-2-methoxybenzenesulfonamide]
< 0.6 µM | NC1(COc2cc(NS(=O)(=O)c3ccc(Cl)cc3F)cc3c2NC(=O)C32CCC2)CC1 [compound 207, N-(7′-((1-aminocyclopropyl)methoxy)-2′-oxospiro[cyclobutane-1,3′-indolin]-5′-yl)-4-chloro-2-fluorobenzenesulfonamide]
< 0.6 µM | COc1ccccc1S(=O)(=O)Nc1cc(Oc2cc[nH]c(=O)c2)c2c(c1)C1(CCC1)C(=O)N2 [compound 213, 2-Methoxy-N-(2′-oxo-7′-((2-oxo-1,2-dihydropyridin-4-yl)oxy)spiro[cyclobutane-1,3′-indolin]-5′-yl)benzenesulfonamide]
> 1 µM | COc1ccccc1S(=O)(=O)Nc1cc(OC2CCN(C)CC2)c2c(c1Br)C1(CCC1)C(=O)N2 [compound 216, N-(4′-bromo-7′-((1-methylpiperidin-4-yl)oxy)-2′-oxospiro[cyclobutane-1,3′-indolin]-5′-yl)-2-methoxybenzenesulfonamide]
< 0.6 µM | CN1CCC(Oc2cc(NC(=O)/C=C/c3ccccc3)cc3c2NC(=O)C32CCC2)CC1 [compound 219, N-(7′-((1-methylpiperidin-4-yl)oxy)-2′-oxospiro[cyclobutane-1,3′-indolin]-5′-yl)cinnamamide]

Further lines, the compound ahead of its results:

SMILES | IC50
O=C1Nc2c(Oc3cc[nH]c(=O)c3)cc(NS(=O)(=O)c3ccc(Cl)cc3F)cc2C12CCC2 [Compound-212, 4-Chloro-2-fluoro-N-(2′-oxo-7′-((2-oxo-1,2-dihydropyridin-4-yl)oxy)spiro[cyclobutane-1,3′-indolin]-5′-yl)benzenesulfonamide] | < 0.6 µM
COc1ccccc1S(=O)(=O)Nc1cc(OC2CCN(C)CC2)c2c(c1Cl)C1(CCC1)C(=O)N2 [Compound-215, N-(4′-chloro-7′-((1-methylpiperidin-4-yl)oxy)-2′-oxospiro-[cyclobutane-1,3′-indolin]-5′-yl)-2-methoxybenzenesulfonamide] | 0.6 to 1 µM
CN1CCC(Oc2cc(NS(=O)(=O)c3ccccc3F)cc3c2NC(=O)C32CCC2)CC1 [compound 128] | < 0.6 µM
CN1CCC(Oc2cc(N(C)S(=O)(=O)c3ccc(F)cc3F)cc3c2NC(=O)C32CCC2)CC1 [compound 180, 2,4-Difluoro-N-methyl-N-(7′-((1-methylpiperidin-4-yl)oxy)-2′-oxospiro[cyclobutane-1,3′-indolin]-5′-yl)benzenesulfonamide] | < 0.6 µM
COc1cccc(OC)c1S(=O)(=O)Nc1cc(OC2CCN(C)CC2)c2c(c1)C1(CCC1)C(=O)N2 [compound 186, 2,6-Dimethoxy-N-(7′-((1-methylpiperidin-4-yl)oxy)-2′-oxospiro[cyclobutane-1,3′-indolin]-5′-yl)benzenesulfonamide] | > 1 µM
CN1CCOC(COc2cc(NS(=O)(=O)c3ccc(Cl)cc3F)cc3c2NC(=O)C32CCC2)C1 (stereo not drawn) [compound 194, 4-Chloro-2-fluoro-N-(7′-((4-methylmorpholin-2-yl)methoxy)-2′-oxospiro[cyclobutane-1,3′-indolin]-5′-yl)benzenesulfonamide] | < 0.6 µM
CC1CC(Oc2cc(NS(=O)(=O)c3ccc(Cl)cc3F)cc3c2NC(=O)C32CCC2)CC(C)N1C (stereo not drawn) [compound 195, 4-Chloro-2-fluoro-N-(2′-oxo-7′-((1,2,6-trimethylpiperidin-4-yl)oxy)spiro[cyclobutane-1,3′-indolin]-5′-yl)benzenesulfonamide] | < 0.6 µM
O=C1Nc2c(OC3CCCNC3)cc(NS(=O)(=O)c3ccc(Cl)cc3F)cc2C12CCC2 (stereo not drawn) [compound 200, 4-Chloro-2-fluoro-N-(2′-oxo-7′-(piperidin-3-yloxy)spiro[cyclobutane-1,3′-indolin]-5′-yl)benzenesulfonamide] | < 0.6 µM
CC1CC(Oc2cc(NS(=O)(=O)c3ccc(Cl)cc3F)cc3c2NC(=O)C32CCC2)CC(C)N1 (stereo not drawn) [compound 201, 4-Chloro-N-(7′-((2,6-dimethylpiperidin-4-yl)oxy)-2′-oxospiro[cyclobutane-1,3′-indolin]-5′-yl)-2-fluorobenzenesulfonamide] | < 0.6 µM
CNCCOc1cc(NS(=O)(=O)c2ccccc2OC)cc2c1NC(=O)C21CCC1 [compound 204, 2-Methoxy-N-(7′-(2-(methylamino)ethoxy)-2′-oxospiro[cyclobutane-1,3′-indolin]-5′-yl)benzenesulfonamide] | < 0.6 µM
CCNCCOc1cc(NS(=O)(=O)c2ccccc2OC)cc2c1NC(=O)C21CCC1 [compound 205, N-(7′-(2-(ethylamino)ethoxy)-2′-oxospiro[cyclobutane-1,3′-indolin]-5′-yl)-2-methoxybenzenesulfonamide] | < 0.6 µM
CN1CCC(Oc2cc(NC(=O)c3ccc(Cl)cc3F)cc3c2NC(=O)C32CCC2)CC1 [compound 224, 4-Chloro-2-fluoro-N-(7′-((1-methylpiperidin-4-yl)oxy)-2′-oxospiro[cyclobutane-1,3′-indolin]-5′-yl)benzamide] | > 1 µM

Source: patent US10336697B2, “Spiro[cyclobutane-1,3′-indolin]-2′-one derivatives as bromodomain inhibitors” (Orion Corporation, priority 2015, dated 2019)
